Strand notation (5' to 3'): a small letter for the sugar, then the base; units joined by * are phosphorothioate-linked, units joined directly phosphodiester-linked; [ ] holds rarer units or linkages, { } end groups; capitals alone tell only the bases. k = constrained ethyl (cEt); [5mC] = 5-methylcytosine; d = 2'-deoxy (DNA)
What was measured:
Yap1 mRNA [1] = assay: Dose-dependent inhibition of human Yap1 in A-431 cells (Example 8, 10,000 cells per well, RTS4814); format: cell-based; conditions: for Yap1 mRNA, % UTC: A-431 cells, 10,000 cells per well; for IC50 / % UTC (Yap1 mRNA): A-431 cells
Method in brief: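 Yap1 mRNA, normalized to RIBOGREEN total RNA and expressed as % untreated control, was read with RTS4814 about 48 h after free-uptake oligonucleotide treatment of A-431 cells at 10,000 cells/well. IC50 derived by linear regression of log/linear data.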

Yap1 mRNA [2] = assay: Antisense inhibition of human Yap1 in A-431 cells by cEt gapmers, single dose (Example 3, RTS36584); format: cell-based
Method in brief: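 Free uptake, 2,000 nM, ~48 h, A-431 cells. Gapmers: 16-mer 3-10-3 cEt wings, PS backbone, 5-MeC. Readout qRT-PCR, RiboGreen-normalized, % UTC.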

[3] = 31.3 nM, free uptake, approximately 48 hours, RTS4814
[4] = 125.0 nM, free uptake, approximately 48 hours, RTS4814
[5] = 500.0 nM, free uptake, approximately 48 hours, RTS4814
[6] = 2000.00 nM, free uptake, approximately 48 hours, RTS4814
[7] = free uptake, approximately 48 hours, RTS4814, linear regression on log/linear plot
[8] = Table 26, Yap1 mRNA by 3-10-3 cEt gapmers targeting SEQ ID NO.: 1, and 2, percent of untreated control
[9] = Table 29, Yap1 mRNA as percent of untreated control, 3-10-3 cEt gapmers targeting SEQ ID NO.: 1, and 2
[10] = Table 35, Yap1 mRNA as percent of untreated control, 3-10-3 cEt gapmers targeting SEQ ID NO: 1 and 2, single dose
[11] = Table 28, Yap1 mRNA as percent of untreated control, 3-10-3 cEt gapmers targeting SEQ ID NO.: 1, and 2
[12] = Table 27, Yap1 mRNA by 3-10-3 cEt gapmers targeting SEQ ID NO.: 1, and 2, percent of untreated control
[13] = Table 34, Yap1 mRNA as percent of untreated control, 3-10-3 cEt gapmers targeting SEQ ID NO: 1 and 2, single dose

| Substance | Yap1 mRNA, % UTC (Yap1 mRNA [1]; [3]) | Yap1 mRNA, % UTC (Yap1 mRNA [1]; [4]) | Yap1 mRNA, % UTC (Yap1 mRNA [1]; [5]) | Yap1 mRNA, % UTC (Yap1 mRNA [1]; [6]) | IC50 (Yap1 mRNA [1]; [7]) | YAP1 (% UTC) (Yap1 mRNA [2]; [8]) | YAP1 (% UTC) (Yap1 mRNA [2]; [9]) | % UTC (Yap1 mRNA) (Yap1 mRNA [1]; 31.3 nM) | % UTC (Yap1 mRNA) (Yap1 mRNA [1]; 125.0 nM) | % UTC (Yap1 mRNA) (Yap1 mRNA [1]; 500.0 nM) | % UTC (Yap1 mRNA) (Yap1 mRNA [1]; 2000.00 nM) | IC50 (Yap1 mRNA [1]; Yap1 mRNA) | YAP1 (% UTC) (Yap1 mRNA [2]; [10]) | YAP1 (% UTC) (Yap1 mRNA [2]; [11]) | YAP1 (% UTC) (Yap1 mRNA [2]; [12]) | YAP1 (% UTC) (Yap1 mRNA [2]; [13]) |
| --- | --- | --- | --- | --- | --- | --- | --- | --- | --- | --- | --- | --- | --- | --- | --- | --- |
| 1075084 (antisense kT*kG*kA*d[5mC]*dA*dA*d[5mC]*dA*dA*d[5mC]*dA*d[5mC]*dT*k[5mC]*k[5mC]*kT) [compound 1075084] | 103 % UTC | 72 % UTC | 37 % UTC | 14 % UTC | 300 nM | 9 % UTC |  |  |  |  |  |  |  |  |  |  |
| 1074447 (kA*kA*kT*dG*dA*dT*dA*dG*d[5mC]*dA*d[5mC]*dT*dA*kG*kG*kA; antisense) [compound 1074447] | 47 % UTC | 20 % UTC | 8 % UTC | 5 % UTC | < 20 nM |  | 4 % UTC |  |  |  |  |  |  |  |  |  |
| 1075061 (antisense k[5mC]*k[5mC]*kT*dT*dA*dT*dA*d[5mC]*dT*dT*dT*dT*dA*kG*k[5mC]*k[5mC]) [compound 1075061] |  |  |  |  |  |  |  | 58 % UTC | 23 % UTC | 9 % UTC | 6 % UTC | < 20 nM | 5 % UTC |  |  |  |
| 1076399 (antisense kG*kA*kT*dA*dA*d[5mC]*dT*dT*dA*dG*dA*dG*dA*kT*kG*kT) [compound 1076399] | 60 % UTC | 29 % UTC | 11 % UTC | 6 % UTC | 40 nM |  | 4 % UTC |  |  |  |  |  |  |  |  |  |
| 1076085 (kA*k[5mC]*kT*dA*dA*dT*dA*dG*dG*d[5mC]*d[5mC]*dA*dT*k[5mC]*kT*kG; antisense) [compound 1076085] |  |  |  |  |  |  |  | 70 % UTC | 34 % UTC | 14 % UTC | 9 % UTC | 100 nM | 7 % UTC |  |  |  |
| 1075916 (antisense k[5mC]*kA*kA*dT*dT*dT*dA*dG*dG*dA*dT*dG*d[5mC]*k[5mC]*kT*kT) [compound 1075916] | 73 % UTC | 34 % UTC | 14 % UTC | 8 % UTC | 100 nM | 6 % UTC |  |  |  |  |  |  |  |  |  |  |
| 1076174 (kG*kA*kT*dA*dT*dA*dT*dG*dG*dT*dA*dG*d[5mC]*kA*kT*kA; antisense) [compound 1076174] | 58 % UTC | 21 % UTC | 7 % UTC | 4 % UTC | < 20 nM |  |  |  |  |  |  |  |  | 3 % UTC |  |  |
| 1076462 (kT*k[5mC]*kA*dG*dA*dA*dG*dG*dA*dT*dA*dT*dG*k[5mC]*kA*kG; antisense) [compound 1076462] | 61 % UTC | 22 % UTC | 8 % UTC | 5 % UTC | 30 nM |  |  |  |  |  |  |  |  | 6 % UTC |  |  |
| 1075052 (antisense kA*kT*kA*dT*dA*dT*dA*d[5mC]*dT*dT*dG*dA*dT*k[5mC]*k[5mC]*kA) [compound 1075052] | 40 % UTC | 10 % UTC | 4 % UTC | 4 % UTC | < 20 nM | 3 % UTC |  |  |  |  |  |  |  |  |  |  |
| 1075053 (antisense kA*kA*kT*dA*dT*dA*dT*dA*d[5mC]*dT*dT*dG*dA*kT*k[5mC]*k[5mC]) [compound 1075053] | 61 % UTC | 24 % UTC | 8 % UTC | 5 % UTC | 40 nM |  |  |  |  |  |  |  |  |  | 4 % UTC |  |
| 1076084 (k[5mC]*kA*kT*d[5mC]*dA*dA*dT*dA*dG*dA*dG*dA*dG*kT*k[5mC]*kG; antisense) [compound 1076084] |  |  |  |  |  |  |  | 69 % UTC | 34 % UTC | 12 % UTC | 8 % UTC | 100 nM |  |  |  | 7 % UTC |
| 1075855 (antisense kG*kA*kT*dT*dT*dT*dT*dA*dG*dG*d[5mC]*dA*dG*kA*k[5mC]*kG) [compound 1075855] | 65 % UTC | 30 % UTC | 12 % UTC | 8 % UTC | 100 nM |  | 7 % UTC |  |  |  |  |  |  |  |  |  |
| 1074484 (kT*k[5mC]*kA*d[5mC]*dT*dA*dA*dT*dA*dT*dG*dG*dT*k[5mC]*kA*kT; antisense) [compound 1074484] | 43 % UTC | 12 % UTC | 5 % UTC | 3 % UTC | < 20 nM |  |  |  |  |  |  |  |  |  |  | 3 % UTC |
| 1075757 (k[5mC]*kT*kT*dA*dA*dT*dA*d[5mC]*dA*dT*dT*dA*dT*kT*k[5mC]*k[5mC]; antisense) [compound 1075757] | 43 % UTC | 14 % UTC | 5 % UTC | 2 % UTC | < 20 nM |  |  |  |  |  |  |  |  |  | 2 % UTC |  |
| 1074479 (k[5mC]*kA*kT*dT*dT*dG*d[5mC]*d[5mC]*dT*dA*dG*dG*dT*kT*k[5mC]*k[5mC]; antisense) [compound 1074479] | 23 % UTC | 8 % UTC | 4 % UTC | 4 % UTC | < 20 nM |  | 2 % UTC |  |  |  |  |  |  |  |  |  |
| 1074453 (kG*kT*kG*dA*d[5mC]*dT*dA*dA*dT*dG*dA*dT*dA*kG*k[5mC]*kA; antisense) [compound 1074453] |  |  |  |  |  |  |  | 51 % UTC | 18 % UTC | 9 % UTC | 5 % UTC | < 20 nM | 4 % UTC |  |  |  |
| 1074414 (kA*kA*k[5mC]*dT*dG*dT*dG*dA*dA*dA*dG*dA*dG*kG*kT*k[5mC]; antisense) [compound 1074414] | 64 % UTC | 34 % UTC | 14 % UTC | 7 % UTC | 100 nM |  |  |  |  |  |  |  |  | 6 % UTC |  |  |
| 1074638 (antisense kA*kG*kA*dT*dT*dT*dT*dG*dT*dA*dA*dT*dT*kG*kG*kG) [compound 1074638] | 14 % UTC | 4 % UTC | 3 % UTC | 3 % UTC | < 20 nM |  |  |  |  |  |  |  |  | 2 % UTC |  |  |
| 1074421 (kT*kG*kA*dT*dT*d[5mC]*dT*dT*dT*dA*dG*dA*dG*k[5mC]*k[5mC]*kA; antisense) [compound 1074421] |  |  |  |  |  |  |  | 61 % UTC | 29 % UTC | 8 % UTC | 5 % UTC | 40 nM | 3 % UTC |  |  |  |
| 1076143 (kG*kA*kT*dA*d[5mC]*dG*dA*dA*dA*dA*dA*dA*dG*k[5mC]*k[5mC]*kA; antisense) [compound 1076143] | 81 % UTC | 48 % UTC | 20 % UTC | 9 % UTC | 100 nM |  | 8 % UTC |  |  |  |  |  |  |  |  |  |

Source: US11214803B2, “Modulators of YAP1 expression” (Ionis Pharmaceuticals, Inc., priority 2019, dated 2022)
